Results published in patent US20240158446A1, “CYCLIC COMPOUND HAVING SELECTIVE INHIBITORY ACTION ON KRAS OVER HRAS AND NRAS” (CHUGAI SEIYAKU KABUSHIKI KAISHA, priority 2021, published 2024).
Where two headings read alike, the source gives them in different places. Where a SMILES comes first, the peptide text is derived from it. Bridges are numbered along the chain shown (N, C = ends). [ ]: non-standard residue; d: D form. The star is where a group is joined. hPhe(3,5-F2-4-CF3) = N[C@@H](CCc1cc(F)c(C(F)(F)F)c(F)c1)C(=O)O; hPhe(3-Cl-4-CF3) = N[C@@H](CCc1ccc(C(F)(F)F)c(Cl)c1)C(=O)O; NPrPhe(4-CF3) = CCCN[C@@H](Cc1ccc(C(F)(F)F)cc1)C(=O)O; NMePhe(4-F) = CN[C@@H](Cc1ccc(F)cc1)C(=O)O; NMeGly(cPent) = CN[C@H](C(=O)O)C1CCCC1; Gly(cBu) = N[C@H](C(=O)O)C1CCC1; NMeD = CN[C@@H](CC(=O)O)C(=O)O; NMeL = CN[C@@H](CC(C)C)C(=O)O; Morpholide = C1CN(*)CCO1; Ac5c = NC1(C(=O)O)CCCC1; Aze = O=C(O)[C@@H]1CCN1; NEtG = CCNCC(=O)O; Sar = CNCC(=O)O

Legend:
[1] = biological target: GDP-bound KRAS wild-type protein (Homo sapiens, UniProt P01116); assay: Binding to KRAS by surface plasmon resonance (SPR), Single Cycle Kinetics; details: GDP-bound KRAS wild-type protein, read-out: KRAS KD
[2] = biological target: GDP-bound NRAS wild-type protein (Homo sapiens, UniProt P01111); assay: Binding to NRAS by surface plasmon resonance (SPR), Single Cycle Kinetics; details: for NRAS/KRAS (ratio of KD value for NRAS to KD value for KRAS) / NRAS/KRAS (ratio of KD value with respect to NRAS to KD value with respect to KRAS): SPR, GDP-bound NRAS wild-type protein vs GDP-bound KRAS wild-type protein
[3] = biological target: GDP-bound HRAS wild-type protein (Homo sapiens, UniProt P01112); assay: Binding to HRAS by surface plasmon resonance (SPR), Single Cycle Kinetics; details: for HRAS/KRAS (ratio of KD value for HRAS to KD value for KRAS) / HRAS/KRAS (ratio of KD value with respect to HRAS to KD value with respect to KRAS): SPR, GDP-bound HRAS wild-type protein vs GDP-bound KRAS wild-type protein
[4] = SPR Single Cycle Kinetics, 1:1 binding model

Chain of GDP-bound HRAS wild-type protein (P01112 whole entry): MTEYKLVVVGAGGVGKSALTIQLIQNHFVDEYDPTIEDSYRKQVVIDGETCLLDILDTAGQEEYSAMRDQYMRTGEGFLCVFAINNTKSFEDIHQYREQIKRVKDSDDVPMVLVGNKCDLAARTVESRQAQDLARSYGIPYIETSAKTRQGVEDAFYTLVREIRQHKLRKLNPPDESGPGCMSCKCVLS
Chain of GDP-bound KRAS wild-type protein (P01116 whole entry): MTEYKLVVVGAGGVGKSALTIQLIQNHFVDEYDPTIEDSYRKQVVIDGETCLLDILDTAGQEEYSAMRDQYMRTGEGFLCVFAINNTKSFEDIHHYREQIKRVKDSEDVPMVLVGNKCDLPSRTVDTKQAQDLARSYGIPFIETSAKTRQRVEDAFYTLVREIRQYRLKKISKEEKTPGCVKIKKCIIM
Chain of GDP-bound NRAS wild-type protein (P01111 whole entry): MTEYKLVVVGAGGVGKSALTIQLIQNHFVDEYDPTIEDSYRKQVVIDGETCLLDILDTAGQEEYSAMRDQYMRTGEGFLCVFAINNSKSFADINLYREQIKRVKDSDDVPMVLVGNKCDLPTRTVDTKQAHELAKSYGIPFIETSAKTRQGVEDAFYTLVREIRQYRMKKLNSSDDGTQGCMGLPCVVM

Compound	Kd ([1]; SPR, Single Cycle Kinetics)	Kd [1, 4]	NRAS/KRAS (ratio of KD value for NRAS to KD value for KRAS) [2]	HRAS/KRAS (ratio of KD value for HRAS to KD value for KRAS) [3]	NRAS/KRAS (ratio of KD value with respect to NRAS to KD value with respect to KRAS) [2]	HRAS/KRAS (ratio of KD value with respect to HRAS to KD value with respect to KRAS) [3]	NRAS/KRAS (ratio of KD value with respect to GDP-bound NRAS wild-type protein to KD value with respect to KRAS) ([2]; SPR KD ratio NRAS/KRAS, class symbols)	HRAS/KRAS (ratio of KD value with respect to GDP-bound HRAS wild-type protein to KD value with respect to KRAS) ([3]; SPR KD ratio HRAS/KRAS, class symbols)
C#CC[C@H]1C(=O)N[C@@H]([C@@H](C)CC)C(=O)N(C)CC(=O)N(C)[C@H]2C/C=C\CCN(C2=O)[C@@H](Cc2ccc(C(F)(F)F)cc2)C(=O)N(C)CC(=O)N[C@@H](CCc2ccc(C(F)(F)F)c(OC)c2)C(=O)N2C[C@H](OCC)C[C@H]2C(=O)NC2(CC(C)(C)C2)C(=O)N(C)[C@@H](C2CCCC2)C(=O)N(C)[C@H](C(=O)N(C)CCC)CC(=O)N1C [PP2053]	0.13 nM	–	A (a compound having 10 or more and less than 20 is denoted as A)	A (a compound having 10 or more and less than 20 is denoted as A)	–	–	–	–
CCCN1C(=O)CN(C)C(=O)[C@@H]2CCN2C(=O)[C@H]([C@@H](C)CC)NC(=O)[C@H](CC(C)C)N(C)C(=O)C[C@@H](C(=O)N2CCOCC2)N(C)C(=O)[C@H](C2CCCC2)N(C)C(=O)C2(CCCC2)NC(=O)[C@@H]2CCCN2C(=O)[C@H](CCc2cc(F)c(C(F)(F)F)c(F)c2)NC(=O)CN(C)C(=O)[C@@H]1Cc1ccc(C(F)(F)F)cc1 [PP0770] ([NMeL]I[Aze][Sar][NPrPhe(4-CF3)][Sar][hPhe(3,5-F2-4-CF3)]P[Ac5c][NMeGly(cPent)][NMeD]-Morpholide; lactam N-11)	–	0.84 nM	–	–	B (a compound having 3 or more and less than 10 is denoted as B)	B (a compound having 3 or more and less than 10 is denoted as B)	–	–
CC[C@H](C)[C@@H]1NC(=O)[C@H](CC)N(C)C(=O)C[C@@H](C(=O)N(C)C)N(CC)C(=O)[C@H](C2CCCC2)N(C)C(=O)C2(CCC2)NC(=O)[C@@H]2CCCN2C(=O)[C@H](CCc2cc(F)c(C(F)(F)F)c(F)c2)NC(=O)CN(C)C(=O)[C@H](Cc2ccc(C(F)(F)F)cc2)N2CC/C=C\C[C@@H](C2=O)N(C)C(=O)CN(C)C1=O [PP1106]	0.81 nM	–	A (a compound having 10 or more and less than 20 is denoted as A)	A (a compound having 10 or more and less than 20 is denoted as A)	–	–	–	–

Second part, led by results:

Kd ([1]; SPR, Single Cycle Kinetics)	Kd [1, 4]	Compound	NRAS/KRAS (ratio of KD value for NRAS to KD value for KRAS) [2]	HRAS/KRAS (ratio of KD value for HRAS to KD value for KRAS) [3]	NRAS/KRAS (ratio of KD value with respect to NRAS to KD value with respect to KRAS) [2]	HRAS/KRAS (ratio of KD value with respect to HRAS to KD value with respect to KRAS) [3]	NRAS/KRAS (ratio of KD value with respect to GDP-bound NRAS wild-type protein to KD value with respect to KRAS) ([2]; SPR KD ratio NRAS/KRAS, class symbols)	HRAS/KRAS (ratio of KD value with respect to GDP-bound HRAS wild-type protein to KD value with respect to KRAS) ([3]; SPR KD ratio HRAS/KRAS, class symbols)
–	0.023 nM	CC[C@H](C)[C@@H]1NC(=O)[C@H](CC(C)C)N(C)C(=O)C[C@@H](C(=O)N2CCOCC2)N(C)C(=O)[C@H](C2CCCC2)N(C)C(=O)C2(CCC2)NC(=O)[C@@H]2CC(F)(F)CN2C(=O)[C@H](CCc2cc(F)c(C(F)(F)F)c(F)c2)NC(=O)CN(C)C(=O)[C@H](Cc2ccc(C(F)(F)F)cc2)N2CCCC[C@@H](C2=O)N(C)C(=O)CN(C)C1=O [PP0575]	–	–	B (a compound having 3 or more and less than 10 is denoted as B)	B (a compound having 3 or more and less than 10 is denoted as B)	–	–
–	0.54 nM	CCCN1C(=O)CN(C)C(=O)CN(CC)C(=O)[C@H](C2CCC2)NC(=O)[C@H](CC(C)C)N(C)C(=O)C[C@@H](C(=O)N2CCOCC2)N(C)C(=O)[C@H](C2CCCC2)N(C)C(=O)C2(CCCC2)NC(=O)[C@@H]2CCCN2C(=O)[C@H](CCc2ccc(C(F)(F)F)c(Cl)c2)NC(=O)CN(C)C(=O)[C@@H]1Cc1ccc(C(F)(F)F)cc1 [PP0292] ([NMeL][Gly(cBu)][NEtG][Sar][NPrPhe(4-CF3)][Sar][hPhe(3-Cl-4-CF3)]P[Ac5c][NMeGly(cPent)][NMeD]-Morpholide; lactam N-11)	B (a compound having 3 or more and less than 10 is denoted as B)	C (A compound having a KD ratio of 0.1 or more and less than 3 is denoted as C)	–	–	–	–
–	0.23 nM	CC[C@H](C)[C@@H]1NC(=O)[C@H](COC)N(C)C(=O)C[C@@H](C(=O)N(C)C)N(C)C(=O)[C@H](C2CCCC2)N(C)C(=O)C2(CC(C)(C)C2)NC(=O)[C@@H]2CCCCN2C(=O)[C@H](CCc2cc(F)c(C(F)(F)F)c(F)c2)NC(=O)CN(C)C(=O)[C@H](Cc2ccc(C(F)(F)F)cc2)N2CC/C=C\C[C@@H](C2=O)N(C)C(=O)CN(C)C1=O [PP2907]	–	–	–	–	AA (a compound having 20 or more is denoted as AA)	A (a compound having 10 or more and less than 20 is denoted as A)
–	0.098 nM	CC[C@H](C)[C@@H]1NC(=O)[C@H](CC(C)C)N(C)C(=O)C[C@@H](C(=O)N2CCOCC2)N(C)C(=O)[C@H](C2CCCC2)N(C)C(=O)C2(CCCC2)NC(=O)[C@@H]2CCCN2C(=O)[C@H](CCc2ccc(C(F)(F)F)c(Cl)c2)NC(=O)CN(C)C(=O)[C@H](Cc2ccc(F)cc2)N(C)C(=O)CN(C)C(=O)CN(C)C1=O [PP0212] ([NMeL]I[Sar][Sar][NMePhe(4-F)][Sar][hPhe(3-Cl-4-CF3)]P[Ac5c][NMeGly(cPent)][NMeD]-Morpholide; lactam N-11)	C (A compound having a KD ratio of 0.1 or more and less than 3 is denoted as C)	C (A compound having a KD ratio of 0.1 or more and less than 3 is denoted as C)	–	–	–	–
